± gives the expanded uncertainty stated by the source.
Experiment: molar heat capacity at constant pressure
Conditions: 101.33 kPa, Liquid, Large sample (1 g) DSC

CCCCCCCCOCCOCCOCCO [2-[2-[2-(octyloxy)ethoxy]ethoxy]ethanol]
Conditions	molar heat capacity at constant pressure [J/K/mol]
275.15 K	563.7 ± 8.7
277.15 K	564.5 ± 8.7
279.15 K	565.2 ± 8.8
281.15 K	566 ± 8.8
283.15 K	566.9 ± 8.8
285.15 K	567.7 ± 8.8
287.15 K	568.6 ± 8.8
289.15 K	569.5 ± 8.8
291.15 K	570.4 ± 8.8
293.15 K	571.3 ± 8.9
295.15 K	572.2 ± 8.9
297.15 K	573.2 ± 8.9
298.15 K	573.7 ± 8.9
299.15 K	574.2 ± 8.9
301.15 K	575.2 ± 8.9
303.15 K	576.2 ± 8.9
305.15 K	577.3 ± 8.9
307.15 K	578.4 ± 9
309.15 K	579.5 ± 9
311.15 K	580.6 ± 9
313.15 K	581.7 ± 9
315.15 K	582.9 ± 9
317.15 K	584.1 ± 9
319.15 K	585.3 ± 9.1
321.15 K	586.5 ± 9.1
323.15 K	587.7 ± 9.1
325.15 K	589 ± 9.1
327.15 K	590.3 ± 9.1
329.15 K	591.6 ± 9.2
331.15 K	592.9 ± 9.2
333.15 K	594.3 ± 9.2
335.15 K	595.6 ± 9.2
337.15 K	597 ± 9.2
339.15 K	598.4 ± 9.3

CCOCCOCCO [3,6-dioxa-1-octanol]
Conditions	molar heat capacity at constant pressure [J/K/mol]
275.15 K	296.5 ± 4.6
277.15 K	296.8 ± 4.6
279.15 K	297.2 ± 4.6
281.15 K	297.6 ± 4.6
283.15 K	298 ± 4.6
285.15 K	298.5 ± 4.6
287.15 K	298.9 ± 4.6
289.15 K	299.4 ± 4.6
291.15 K	299.9 ± 4.6
293.15 K	300.4 ± 4.7
295.15 K	300.9 ± 4.7
297.15 K	301.4 ± 4.7
298.15 K	301.7 ± 4.7
299.15 K	301.9 ± 4.7
301.15 K	302.5 ± 4.7
303.15 K	303.1 ± 4.7
305.15 K	303.7 ± 4.7
307.15 K	304.3 ± 4.7
309.15 K	304.9 ± 4.7
311.15 K	305.5 ± 4.7
313.15 K	306.2 ± 4.7
315.15 K	306.9 ± 4.8
317.15 K	307.5 ± 4.8
319.15 K	308.2 ± 4.8
321.15 K	309 ± 4.8
323.15 K	309.7 ± 4.8
325.15 K	310.4 ± 4.8
327.15 K	311.2 ± 4.8
329.15 K	312 ± 4.8
331.15 K	312.8 ± 4.8
333.15 K	313.6 ± 4.9
335.15 K	314.4 ± 4.9
337.15 K	315.2 ± 4.9
339.15 K	316.1 ± 4.9

CCCCOCCO [2-butoxyethan-1-ol]
Conditions	molar heat capacity at constant pressure [J/K/mol]
275.15 K	261.7 ± 4.1
277.15 K	262.6 ± 4.1
279.15 K	263.6 ± 4.1
281.15 K	264.6 ± 4.1
283.15 K	265.6 ± 4.1
285.15 K	266.6 ± 4.1
287.15 K	267.6 ± 4.1
289.15 K	268.5 ± 4.2
291.15 K	269.5 ± 4.2
293.15 K	270.5 ± 4.2
295.15 K	271.5 ± 4.2
297.15 K	272.5 ± 4.2
298.15 K	273 ± 4.2
299.15 K	273.5 ± 4.2
301.15 K	274.5 ± 4.3
303.15 K	275.5 ± 4.3
305.15 K	276.5 ± 4.3
307.15 K	277.5 ± 4.3
309.15 K	278.5 ± 4.3
311.15 K	279.5 ± 4.3
313.15 K	280.5 ± 4.3
315.15 K	281.5 ± 4.4
317.15 K	282.5 ± 4.4
319.15 K	283.5 ± 4.4
321.15 K	284.5 ± 4.4
323.15 K	285.5 ± 4.4
325.15 K	286.5 ± 4.4
327.15 K	287.5 ± 4.5
329.15 K	288.5 ± 4.5
331.15 K	289.6 ± 4.5
333.15 K	290.6 ± 4.5
335.15 K	291.6 ± 4.5
337.15 K	292.6 ± 4.5
339.15 K	293.6 ± 4.5

CCCCCCOCCOCCO [2-(2-hexyloxyethoxy)ethanol]
Conditions	molar heat capacity at constant pressure [J/K/mol]
275.15 K	411.2 ± 6.4
277.15 K	412 ± 6.4
279.15 K	412.8 ± 6.4
281.15 K	413.6 ± 6.4
283.15 K	414.4 ± 6.4
285.15 K	415.3 ± 6.4
287.15 K	416.1 ± 6.4
289.15 K	417 ± 6.5
291.15 K	417.9 ± 6.5
293.15 K	418.7 ± 6.5
295.15 K	419.6 ± 6.5
297.15 K	420.5 ± 6.5
298.15 K	421 ± 6.5
299.15 K	421.4 ± 6.5
301.15 K	422.3 ± 6.5
303.15 K	423.2 ± 6.6
305.15 K	424.2 ± 6.6
307.15 K	425.1 ± 6.6
309.15 K	426 ± 6.6
311.15 K	427 ± 6.6
313.15 K	428 ± 6.6
315.15 K	428.9 ± 6.6
317.15 K	429.9 ± 6.7
319.15 K	430.9 ± 6.7
321.15 K	431.9 ± 6.7
323.15 K	432.9 ± 6.7
325.15 K	433.9 ± 6.7
327.15 K	434.9 ± 6.7
329.15 K	436 ± 6.8
331.15 K	437 ± 6.8
333.15 K	438 ± 6.8
335.15 K	439.1 ± 6.8
337.15 K	440.2 ± 6.8
339.15 K	441.2 ± 6.8

CCOCCO [2-ethoxyethan-1-ol]
Conditions	molar heat capacity at constant pressure [J/K/mol]
275.15 K	203.3 ± 3.2
277.15 K	204 ± 3.2
279.15 K	204.6 ± 3.2
281.15 K	205.3 ± 3.2
283.15 K	205.9 ± 3.2
285.15 K	206.6 ± 3.2
287.15 K	207.3 ± 3.2
289.15 K	208 ± 3.2
291.15 K	208.6 ± 3.2
293.15 K	209.3 ± 3.2
295.15 K	210 ± 3.3
297.15 K	210.7 ± 3.3
298.15 K	211.1 ± 3.3
299.15 K	211.4 ± 3.3
301.15 K	212.1 ± 3.3
303.15 K	212.8 ± 3.3
305.15 K	213.6 ± 3.3
307.15 K	214.3 ± 3.3
309.15 K	215 ± 3.3
311.15 K	215.7 ± 3.3
313.15 K	216.5 ± 3.4
315.15 K	217.2 ± 3.4
317.15 K	218 ± 3.4
319.15 K	218.7 ± 3.4
321.15 K	219.5 ± 3.4
323.15 K	220.2 ± 3.4
325.15 K	221 ± 3.4
327.15 K	221.8 ± 3.4
329.15 K	222.6 ± 3.4
331.15 K	223.3 ± 3.5
333.15 K	224.1 ± 3.5
335.15 K	224.9 ± 3.5
337.15 K	225.7 ± 3.5
339.15 K	226.5 ± 3.5

CCCOCCOCCO [2-(2-propoxyethoxy)ethanol]
Conditions	molar heat capacity at constant pressure [J/K/mol]
275.15 K	321.3 ± 5
277.15 K	322 ± 5
279.15 K	322.6 ± 5
281.15 K	323.3 ± 5
283.15 K	324 ± 5
285.15 K	324.7 ± 5
287.15 K	325.4 ± 5
289.15 K	326.1 ± 5.1
291.15 K	326.8 ± 5.1
293.15 K	327.5 ± 5.1
295.15 K	328.2 ± 5.1
297.15 K	329 ± 5.1
298.15 K	329.4 ± 5.1
299.15 K	329.7 ± 5.1
301.15 K	330.5 ± 5.1
303.15 K	331.3 ± 5.1
305.15 K	332 ± 5.1
307.15 K	332.8 ± 5.2
309.15 K	333.6 ± 5.2
311.15 K	334.4 ± 5.2
313.15 K	335.2 ± 5.2
315.15 K	336 ± 5.2
317.15 K	336.9 ± 5.2
319.15 K	337.7 ± 5.2
321.15 K	338.5 ± 5.2
323.15 K	339.4 ± 5.3
325.15 K	340.3 ± 5.3
327.15 K	341.1 ± 5.3
329.15 K	342 ± 5.3
331.15 K	342.9 ± 5.3
333.15 K	343.8 ± 5.3
335.15 K	344.7 ± 5.3
337.15 K	345.6 ± 5.4
339.15 K	346.5 ± 5.4

COCCOCCOCCOCCO [3,6,9,12-tetraoxatridecanol]
Conditions	molar heat capacity at constant pressure [J/K/mol]
275.15 K	445.4 ± 6.9
277.15 K	445.6 ± 6.9
279.15 K	445.8 ± 6.9
281.15 K	446 ± 6.9
283.15 K	446.2 ± 6.9
285.15 K	446.5 ± 6.9
287.15 K	446.8 ± 6.9
289.15 K	447.1 ± 6.9
291.15 K	447.4 ± 6.9
293.15 K	447.7 ± 6.9
295.15 K	448.1 ± 6.9
297.15 K	448.4 ± 6.9
298.15 K	448.6 ± 6.9
299.15 K	448.8 ± 7
301.15 K	449.2 ± 7
303.15 K	449.6 ± 7
305.15 K	450 ± 7
307.15 K	450.5 ± 7
309.15 K	451 ± 7
311.15 K	451.5 ± 7
313.15 K	452 ± 7
315.15 K	452.5 ± 7
317.15 K	453 ± 7
319.15 K	453.6 ± 7
321.15 K	454.2 ± 7
323.15 K	454.8 ± 7
325.15 K	455.4 ± 7.1
327.15 K	456 ± 7.1
329.15 K	456.6 ± 7.1
331.15 K	457.3 ± 7.1
333.15 K	458 ± 7.1
335.15 K	458.7 ± 7.1
337.15 K	459.4 ± 7.1
339.15 K	460.1 ± 7.1

From the NIST ThermoML archive (doi:10.1021/acs.jced.5b00051)
